Source: US8596557B2, “Pest control aerosol sprayer” (Fumakilla Limited, priority 2008, dated 2013)

Key:
[1] = Back-fire test of aerosol sprayers loaded with various gases (Test Example 1); conditions: sprayed 5 seconds towards burner flame, sprayer at 25° C.
Protocol: (§1) Test Example 1 relates to back-fire tests for the aerosol sprayer using various gases. Specifically, aerosol sprayers loaded with various gases acting as both propellant and refrigerant were prepared. And, after these aerosol sprayers were immersed in a thermostatic bath at 25° C. for 1 hour, each of them was arranged with the flame, as a fire origin, of an ignited burner so that the spray nozzle of its head cap and the flame lied horizontally in the same height. And, each gas was sprayed from the spray nozzle of the head cap in the aerosol sprayer for 5 seconds towards the flame as the fire origin to check if there was a backfire. This was repeated a plurality of times. Here, the fire origin was spaced from the spray nozzle at a distance of 15 cm and at a distance of 60 cm.
Further, HFO-1234ze as another alternative for chlorofluorocarbon was also subjected to the same backfire tests as for HFC-152a and HFC-134a in Text Example 1 mentioned above.

[2] = Mode of spraying: average particle size and minimum temperature of target area (Test Example 3); assay type: physicochemical
Protocol: (§2) In Test Example 3, modes of spraying from the spray nozzle 10 in the head cap 2 were examined. This is to examine the refrigerating and behavioral inhibiting effects on a noxious insect by a noxious insect behavioral inhibitor A which is sprayed from the spray nozzle 10. Specifically, a wooden flooring was prepared on which a glass ring (having a diameter of 9 cm and a height of 6 cm) was placed. […] And, one female adult of Periplaneta fuliginosa is introduced inside of the glass ring. On the other hand, two different head caps were prepared, one provided with a single spray nozzle 10 and the other provided with a pressure reducer means comprising an upper and a lower spray nozzle 10a and 10b. And, using them, the noxious insect behavioral inhibitor A is sprayed for 3 seconds toward the Periplaneta fuliginosa from a distance of 50 cm therefrom, and the state of the Periplaneta fuliginosa thereafter (possible knockdown after 2 minutes and after 1 hour and fatality after 24 hours) is observed. Further, the minimum temperatures of a target area of spraying are measured. And, the room temperature is 25° C., and the noxious insect behavioral inhibitor A is HFC-152a alone (100%). The two head caps 2, the one with the single spray nozzle 10 and the other with the two spray nozzles 10, are made to spray substantially at a identical rate of spraying.
(§3) Also, in Test Example 3, noxious insect behavioral inhibitors containing HFO-1234ze alone (100%), at a content of 75% and at a content of 50% were examined. What is mixed is dimethyl ether.

Periplaneta fuliginosa = test: Biological test: knockdown and fatality after 3 second spray from 50 cm (Test Example 3); assay type: in vivo; conditions: female adult
Protocol: as §2, §3

[3] = Back-fire test on content of HFC-152a / HFO-1234ze mixed with LPG or dimethyl ether (Test Example 2); conditions: varied mixture ratio, sprayed 5 seconds towards burner flame
Protocol: as §1, with “In Test” for “Test”, “Example 2, aerosol sprayers using HFC-152a as an alternative for chlorofluorocarbon were tested on its content. This, too,” for “Example 1”, “back-fire tests.” for “back-fire tests for the aerosol sprayer using various gases.”, “with HFC-152a alone” for “with various gases acting as both propellant”, “and mixtures of HFC-15a with LPG or dimethyl ether (in varied mixture ratio)” for “and refrigerant”, “15” for “15 cm and at a distance of 60”
Further, HFO-1234ze as another alternative for chlorofluorocarbon was also tested on its content as in Text Example 2 above. Specifically, aerosol sprayers loaded with HFO-1234ze alone and mixtures of HFO-1234ze with LPG or dimethyl ether (in varied mixture ratio) were prepared. […]

[4] = two spray nozzles (upper 1.5 mm, lower 1.8 mm)
[5] = single spray nozzle (1.5 mm diameter), n = 10
[6] = two spray nozzles (upper 1.5 mm, lower 1.8 mm), n = 10

Row | SMILES | Backfire, 15 cm distant from Fire Origin [1] | Backfire, 60 cm distant from Fire Origin [1] | Average particle size ([2]; single spray nozzle (1.5 mm diameter)) [μm] | Average particle size [2, 4] [μm] | Fatality after 24 hours (Periplaneta fuliginosa; [5]) [%] | Knockdown rate after 1 hour (Periplaneta fuliginosa; [5]) [%] | Knockdown rate after 2 minutes (Periplaneta fuliginosa; single spray nozzle (1.5 mm diameter), n = 10, room temperature 25° C.) [%] | Fatality after 24 hours (Periplaneta fuliginosa; [6]) [%] | Knockdown rate after 2 minutes (Periplaneta fuliginosa; [6]) [%] | Knockdown rate after 1 hour (Periplaneta fuliginosa; [6]) [%] | Backfire, 15 cm distant from Fire Origin (content test) [3]
1 | FCC(F)(F)F [HFC-134a (100%)] | Not Backfired | Not Backfired | – | – | – | – | – | – | – | – | –
2 | CC(F)F [HFC-152a (100%), 1,1-difluoroethane] | Not Backfired | Not Backfired | 57 | 97 | 10 | 40 | 90 | 100 | 100 | 100 | Not Back-fired
3 | FC=CC(F)(F)F [HFO-1234ze (100%), 1,3,3,3-tetrafluoropropene] | Not Backfired | Not Backfired | – | 120 | – | – | – | 60 | 100 | 100 | Not Back-fired
4 | COC [dimethyl ether (100%), dimethyl ether, reference compound] | Backfired | Backfired | – | – | – | – | – | – | – | – | –
